Paper PMC6882823, “Partitioning of amino acids and proteins into decanol using phase transfer agents towards understanding life in non-polar liquids” (Scientific Reports, 2019)

Experiments:
[1] = parameters: method as in PMID 7108955; conditions: amino acid residue; positive scores = higher hydrophobicity; cited from earlier work
[2] = Water/decanol phase partitioning with or without phase transfer agents; assay type: physicochemical
Description: Biomolecules were dissolved in ultrapure water (Millipore EMD, USA), containing decylsulfate and/or DDAB when noted. […] Final concentrations of phase transfer agents (PTAs) and amino acids were generally 10 mM unless noted otherwise for specific experiments. Proteins were generally diluted until their 280 nm absorbance was less than or equal to 1 AU.
(§1) Equal volumes of water phase (containing the biomolecule and PTA, if added) and decanol were mixed, vortexed for 30 s, then centrifuged for 3 minutes with a mini centrifuge. These samples were prepared in triplicate. Both decanol and aqueous phase were analyzed for biomolecules. Phenylalanine and proteins were analyzed using UV-vis (Hewlett-Packard 8453).
(§2) HPLC was performed with Cosmosil HILiC column (2.5 µm particle size, 3 × 100 mm; Nacalai USA) at 30 °C with a 1.0 mL/min flow rate, and isocratic elution of 25% 20 mM ammonium acetate, pH 7.5 and 75% acetonitrile (Optima, LC-MS purity, Fisher Scientific). Injection volume was 10 µL. For mass spectra collection, HESI heater temp was 50 °C, with a 4.5 kV spray, and 250 °C capillary temperature in positive ion mode.

[3] = Potassium ion binding of valinomycin in the decanol phase; conditions: decanol phase after partitioning against 100 mM KCl
Description: Ultra-pure Millipore grade (18.2 MΩ) water, 100 mM KCl or 100 mM AuCl were tested as aqueous phases. In all samples all of the valinomycin was found in the decanol phase (see SI for additional details).
as §1, §2

N[C@@H](CCC(=O)O)C(=O)O [glutamic acid]
Hydrophathy (hydropathy score of residue type) [1]: −3.5

NCC(=O)O [glycine, Glycine]
Hydrophathy (hydropathy score of residue type) [1]: −0.4

N[C@@H](Cc1ccccc1)C(=O)O [phenylalanine, Phenylalanine]
phenylalanine partitioning into decanol, 1:1 PTA to phenylalanine, pH 7 ([2]; water/decanol, 10 mM phenylalanine, 1:1 ratio of PTA (DS and DDAB 1:1), pH 7 zwitterionic, UV-vis, n = 3): 15% | phenylalanine entering the decanol phase, 1:10 PTA to phenylalanine ([2]; water/decanol, 10 mM phenylalanine, 1:10 ratio of PTA, all pHs (1.5 DS; 7.0 DS and DDAB; 10.0 DDAB), UV-vis, n = 3): about 10% | Hydrophathy (hydropathy score of residue type) [1]: 2.8

Tpol: Taq DNA polymerase, UniProt P19821
Tpol entering the decanol phase ([2]; water/decanol, no PTA or 5 mM of both DDAB and DS, UV-vis): About 10%

valinomycin [reference compound]
valinomycin found in the decanol phase ([2]; water/decanol, without PTAs, aqueous phase ultra-pure water, 100 mM KCl or 100 mM AuCl, LC-MS and UV 210 nm, three independent partitionings): all | ability to bind potassium ions [3]: appeared to retain its biological ability to bind to potassium ions

B1: Bacteriorhodopsin: a membrane protein, soluble only in amphiphilic systems (protein, UniProt P02945 14-262, looked up)
Bacteriorhodopsin: QAQITGRPEWIWLALGTALMGLGTLYFLVKGMGVSDPDAKKFYAITTLVPAIAFTMYLSMLLGYGLTMVPFGGEQNPIYWARYADWLFTTPLLLLDLALLVDADQGTILALVGADGIMIGTGLVGALTKVYSYRFVWWAISTAAMLYILYVLFFGFTSKAESMRPEVASTFKVLRNVTVVLWSAYPVVWLIGSEGAGIVPLNIETLLFMVLDVSAKVGFGLILLRSRAIFGEAEAPEPSAGDGAAATSD
behaviour of bacteriorhodopsin in partitioning experiments ([2]; water/decanol with DS and DDAB added, visual): aggregated at the interface between the water and oil phase | solubility in water and decanol phases ([2]; without PTAs, appearing as crystals): insoluble in both the water and decanol phases
